Source: patent publication US6310247A, “7-aryl-6(Z)-heptatrienoic acid retinamides” (Hoffmann-LA Roche Inc., priority 1999, dated 2001)
Like-named read-outs stand apart in the source and are kept apart here.

Assays:
H1299 cells = experiment: Apoptosis: cell death detection by ELISA, H1299 (lung large cell carcinoma); format: cell-based; conditions: Homo sapiens, NCI-H1299, read-out: Fold induction of apoptosis compared to no drug control
Experimental: Lung, large cell carcinoma, human (H1299), obtained from ATCC (CRL-5803), were grown in Gibco's Delbecco Minimum Essential media (DMEM), high glucose, supplemented with sodium pyruvate, 10% FBS and 13 ng/mL gentamicin. Cells were incubated at 37° C., 4.5% CO2 and 95.5% humidified air.
(§1) 2. Apoptosis: Cell death detection by ELISA:
(§2) Compounds of formula 1 were tested for the ability to cause apoptosis as follows:
(§3) Cells and media were collected, cells were pelleted, resuspended in 100 μl lysis buffer (50 mM Tris-Cl (pH=8.0), 20 mM EDTA, 1% NP-40e) and incubated 30 minutes at 4° C. to lyse. Cell debris was spun down and an aliquot (30 μl) of the […] was removed for protein determination and stored at -20° C. An additional 280 μl of lysis buffer, was added, mixed thoroughly and spun down at 14,000 RPM for 10 minutes at 4° C. An aliquot was removed (180 μl) and the sample was stored at -20° C. until testing.
A commercially available apoptosis detection kit, obtained from Boehringer Mannheim (Cat. No. 1544-674), was used as per the directions provided with the kit (Cell Death Detection ELISA). However, the protocol was modified in that a 1:40 to 1:100 dilution of sample was prepared, rather than the recommended 1:10 dilution, due to the increase in cell number used to prepare the sample extract and the subsequent increase in ELISA reactivity. The assay measures apoptosis by quantifying the amount of nucleosomal fragmentation from the extracts of cells treated with the test compounds (samples). These nucleosomal fragments, generated by the activation of endonucleases, are a known downstream effector of apoptosis. Antihistone antibodies are used to fix any nucleosomal fragments in the sample to the well of the microtiter plates. The sample is then incubated with anti-DNA antibodies conjugated to peroxidase and subsequently incubated with the peroxidase substrate, ABTS. The resulting colorimetric change is measured spectrophotometrically at 405/490nm.
The total protein content of each sample was determined for the purpose of normalizing the ELISA values to amount of sample loaded. Microplate assay protocol described in the instruction manual, for (Biorad DC Assay, Cat.#500-0116) section 5.2. The protein concentrations were calculated based upon a linear regression curve.
d) ELISA assay calculations
(§4) Relative ELISA O.D. readings are determined by subtracting the ELISA plate background O.D. value. No drug control O.D. value (lysis buffer only) was subtracted from sample O.D. value. A correction coefficient (CC), based on the sample protein concentration compared to no drug control, was determined to correct the sample O.D. following subtraction of the background O.D. (BCS O.D.). The fold increase over no drug control is calculated and normalized to the total protein concentration of the samples by multiplying against the correction coefficient.
To determine the fold increase in ELISA O.D., obtain the following O.D. measurements:
ELISA plate background--lysis buffer only (EPB);
no drug treated control--cell sample treated with DMSO (NDT);
drug treated sample--cell sample treated with a compound of formula 1 (DT) Subtract EPB from NDT (NDT-EPB) and DT (DT-EPB). The fold increase of the treated over the control is then (DT-EPB)/(NDT-EPB).
To determine the total protein concentration of the samples, obtain the total protein concentration in mg/ul calculated using standard linear regression formula (y=mx+b) based on BSA standards. B=ELISA background. Protein concentration (PC)(mg/ml)=(sample absorbance-b)/x.
Correction coefficient (cc) is (NDT)(PC)/(DT)(PC).
Determine fold increase of ELISA (FT) normalized to total PC:
nDT is DT×cc (which is DT O.D. normalized to PC)
nNDT is NDT×cc (which is NDT O.D. normalized to PC)
FI normalized to PC is nDT/nNDT.

[1] = tested on: ER+ and ER- breast carcinoma cells; experiment: Induction of apoptosis in ER+ and ER- carcinoma cells (statements in words); format: cell-based, human; conditions: 24-48 h
Experimental: as §1, §2, §3
A commercially available apoptosis detection kit, obtained from Boehringer Mannheim (Cat. No. 1544-674), was used as per the directions provided with the kit (Cell Death Detection ELISA). […] The assay measures apoptosis by quantifying the amount of nucleosomal fragmentation from the extracts of cells treated with the test compounds (samples). […] The resulting colorimetric change is measured spectrophotometrically at 405/490nm.
The total protein content of each sample was determined for the purpose of normalizing the ELISA values to amount of sample loaded. […] The protein concentrations were calculated based upon a linear regression curve. […]
as §4, with “No drug control O.D. value (lysis buffer only) was subtracted from sample O.D. value.” left out, “coefficient. […]” for “coefficient.”
To determine the total protein concentration of the samples, obtain the total protein concentration in mg/ul calculated using standard linear regression formula (y=mx+b) based on BSA standards. […] Protein concentration (PC)(mg/ml)=(sample absorbance-b)/x. […]

Q: What does the source list for C/C(=C/C=C/C(C)=C/C(=O)Nc1ccc(O)cc1)c1cc(C(F)(F)F)cc(C(F)(F)F)c1 [N-(4-hydroxyphenyl)-(2E,4E,6Z)-7-[3,5-bis(trifluoromethyl)phenyl]-3,7-dimethyl-2,4,6-heptatrienamide]?
A: fold induction at 1 µM (H1299 cells; 24 hrs): 1; fold induction at 3.3 µM (H1299 cells; 24 hrs): 3; fold induction at 10 µM (H1299 cells; 24 hrs): 2; fold induction at 1 µM (H1299 cells; 48 hrs): 1; fold induction at 3.3 µM (H1299 cells; 48 hrs): 10; fold induction at 10 µM (H1299 cells; 48 hrs): 12; fold induction at 1 µM (H1299 cells; 72 hrs): 1; fold induction at 3.3 µM (H1299 cells; 72 hrs): 17; fold induction at 10 µM (H1299 cells; 72 hrs): 20; Induction of apoptosis (in words) [1]: significant induction of apoptosis
